According to patent US20240158370A1, “CK1 alpha AND DUAL CK1 alpha / GSPT1 DEGRADING COMPOUNDS” (Innovo Therapeutics, Inc., priority 2022, published 2024):

Tests used:
CK1α = molecular target: T1, CK1α (Homo sapiens, UniProt P48729+Q96SW2); test: HiBiT degradation assay, CK1α, Procedure A; assay type: cell-based
T1 construct: CSNK1A1-HiBit KI HEK293(LgBit) Cells; host or cells: HEK293(LgBit) knock-in cells
Experimental: (§1) Compounds were spotted onto Cornin 384-Well, Cell Culture-Treated, Flat-Bottom, Low Flange Microplate (Fisher Scientific, Catalog #07-201-013) using a Tecan D300e digital dispenser. Ten-point dose response curves spanning from 10 μM to 0.005 μM with a 0.1% DMSO tolerance were used.
(§2) Cells were dissociated from tissue 182 cm^2 Tissue Culture Flask (CellTreat Catalog #229351) by washing the cells with PBS (Fisher Scientific Catalog #BP3994) followed by dissociation with Trypsin-EDTA (0.25%) (Thermo Scientific Catalog #25200056). Trysin was neutralized and cells were resuspended with DMEM+10% FBS. Cells were centrifuged for 5 minutes at 1200 RPMs. Cell culture media was aspirated off and cells were resuspended with DMEM+10% FBS. Cell density was determined using a Denovix CellDrop BF cell counter. Cell density was adjusted to 1×10^6 cells/ml. 40 μl of cells was added to compound treated tissue culture plates and incubated for six hours at 37° C. After six hours, cell culture plates were removed from tissue culture incubator and cooled to room temperature. 40 μl of Nano-GloHiBiT Lytic Detection Reagent (Promega, Catalog #N3040) was added to each well. Plates were placed on an orbital shaker (600 rpm) for 20 minutes. Luminescence was measured using an Envsion plate reader (Perkin Elmer). DC50 curves and Ymin were generated using a 4-parameter curve fit with GraphPad Prism software (Prism Corporation).
(§3) Results from the HiBiT assay (DC50 (nM) and Ymin (% remaining)) are shown below. All CK1α data was generated according to Procedure A. GSPT1 data for Examples 1-600, 603-620 and 703-705 was generated according to Procedure A. GSPT1 data for Examples 601, 621-702 and 706-735 was generated according to Procedure B.

GSPT1 = GSPT1 (Homo sapiens, UniProt P15170+Q96SW2); test: HiBiT degradation assay, GSPT1, Procedure A; assay type: cell-based; set-up: HiBit-GSPT1 KI HEK293(LgBit) Cells; host or cells: HEK293(LgBit) knock-in cells; settings: six hours incubation
Chain of GSPT1 (P15170 whole entry): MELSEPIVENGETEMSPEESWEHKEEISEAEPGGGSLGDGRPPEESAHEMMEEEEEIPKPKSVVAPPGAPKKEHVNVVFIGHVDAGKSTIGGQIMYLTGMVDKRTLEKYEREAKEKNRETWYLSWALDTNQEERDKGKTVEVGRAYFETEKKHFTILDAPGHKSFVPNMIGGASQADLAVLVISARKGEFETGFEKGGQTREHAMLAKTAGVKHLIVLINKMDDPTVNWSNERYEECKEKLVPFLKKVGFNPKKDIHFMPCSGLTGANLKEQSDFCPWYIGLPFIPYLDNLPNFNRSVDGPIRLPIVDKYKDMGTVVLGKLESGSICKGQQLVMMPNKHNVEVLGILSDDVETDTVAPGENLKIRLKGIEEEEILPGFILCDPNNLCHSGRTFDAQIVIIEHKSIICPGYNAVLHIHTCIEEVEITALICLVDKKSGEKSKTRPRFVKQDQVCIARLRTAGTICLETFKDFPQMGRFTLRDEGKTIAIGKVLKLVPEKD
Chain of GSPT1 (Q96SW2 whole entry): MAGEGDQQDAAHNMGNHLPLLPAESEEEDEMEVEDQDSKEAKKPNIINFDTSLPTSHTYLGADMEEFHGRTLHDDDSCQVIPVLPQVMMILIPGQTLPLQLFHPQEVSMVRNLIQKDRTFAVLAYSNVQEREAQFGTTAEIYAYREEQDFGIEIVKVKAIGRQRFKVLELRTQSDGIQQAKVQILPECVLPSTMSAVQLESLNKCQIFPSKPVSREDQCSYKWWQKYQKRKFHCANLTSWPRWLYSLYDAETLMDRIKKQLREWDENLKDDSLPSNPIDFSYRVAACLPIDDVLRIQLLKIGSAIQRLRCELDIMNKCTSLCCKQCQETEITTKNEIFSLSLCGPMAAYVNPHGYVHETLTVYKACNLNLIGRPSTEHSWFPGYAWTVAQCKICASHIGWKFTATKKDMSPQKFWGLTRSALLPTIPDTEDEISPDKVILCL
Chain of GSPT1 (Q16531 whole entry partner): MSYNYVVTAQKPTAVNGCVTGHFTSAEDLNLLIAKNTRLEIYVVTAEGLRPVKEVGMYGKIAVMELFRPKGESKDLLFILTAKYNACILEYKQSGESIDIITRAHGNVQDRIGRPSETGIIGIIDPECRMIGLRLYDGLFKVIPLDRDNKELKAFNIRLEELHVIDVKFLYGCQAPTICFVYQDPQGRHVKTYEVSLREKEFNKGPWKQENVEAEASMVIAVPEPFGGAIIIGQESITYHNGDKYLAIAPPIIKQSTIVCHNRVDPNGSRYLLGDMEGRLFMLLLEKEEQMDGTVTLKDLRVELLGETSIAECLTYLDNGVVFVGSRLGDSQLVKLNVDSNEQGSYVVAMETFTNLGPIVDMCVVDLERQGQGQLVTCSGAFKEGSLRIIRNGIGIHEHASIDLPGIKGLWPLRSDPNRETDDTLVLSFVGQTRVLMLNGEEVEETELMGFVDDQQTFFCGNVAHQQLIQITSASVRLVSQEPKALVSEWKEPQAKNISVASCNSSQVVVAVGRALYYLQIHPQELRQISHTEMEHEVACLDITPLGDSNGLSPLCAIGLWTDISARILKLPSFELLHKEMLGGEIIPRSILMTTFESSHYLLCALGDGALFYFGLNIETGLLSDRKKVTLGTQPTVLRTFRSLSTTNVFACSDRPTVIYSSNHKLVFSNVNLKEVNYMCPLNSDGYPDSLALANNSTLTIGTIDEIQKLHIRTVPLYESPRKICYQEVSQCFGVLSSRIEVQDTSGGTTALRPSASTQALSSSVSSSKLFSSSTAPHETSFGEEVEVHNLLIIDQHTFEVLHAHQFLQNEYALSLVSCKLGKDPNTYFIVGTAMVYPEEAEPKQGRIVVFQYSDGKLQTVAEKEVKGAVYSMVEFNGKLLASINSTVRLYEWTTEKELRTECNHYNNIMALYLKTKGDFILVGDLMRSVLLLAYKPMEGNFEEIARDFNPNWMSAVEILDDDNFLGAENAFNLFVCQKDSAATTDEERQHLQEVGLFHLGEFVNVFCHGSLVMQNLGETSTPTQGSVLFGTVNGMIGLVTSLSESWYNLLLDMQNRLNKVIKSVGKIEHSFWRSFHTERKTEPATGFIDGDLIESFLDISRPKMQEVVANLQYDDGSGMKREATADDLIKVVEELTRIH
Experimental: as §1, §2, §3

T1 sequence (P48729 whole entry): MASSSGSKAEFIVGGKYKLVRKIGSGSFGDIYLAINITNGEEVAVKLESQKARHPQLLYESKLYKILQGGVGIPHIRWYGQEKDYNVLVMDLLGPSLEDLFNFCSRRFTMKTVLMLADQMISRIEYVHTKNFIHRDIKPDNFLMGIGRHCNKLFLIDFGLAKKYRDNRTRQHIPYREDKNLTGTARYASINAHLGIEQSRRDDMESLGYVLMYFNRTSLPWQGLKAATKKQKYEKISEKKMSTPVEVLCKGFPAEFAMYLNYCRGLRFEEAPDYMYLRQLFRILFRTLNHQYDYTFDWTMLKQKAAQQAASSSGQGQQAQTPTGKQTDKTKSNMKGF
T1 sequence (Q96SW2 whole entry): as the sequence (Q96SW2 whole entry) above
T1 sequence (Q16531 whole entry partner): as the sequence (Q16531 whole entry partner) above

Row | Structure (SMILES) | CK1α Ymin (CK1α; six hours incubation) | DC50 (CK1α; six hours incubation) | DC50 (GSPT1) | GSPT1 Ymin (GSPT1) | CK1α Ymin (CK1α; six hours) | DC50 (CK1α; six hours)
1 | Cn1ncc(-c2ccc3c(c2)CN(C2CCC(=O)NC2=O)C3=O)c1-c1ccccc1 (stereo not drawn) [Example 1, 3-(5-(1-Methyl-5-phenyl-1H-pyrazol-4-yl)-1-oxoisoindolin-2-yl)piperidine-2,6-dione] | D (D = >10- 25% remaining) | < 25 nM | ≥ 25 nM | F (F = >75-100% remaining) |  | 
2 | Cn1cnc(-c2ccc3c(c2)CN(C2CCC(=O)NC2=O)C3=O)c1-c1ccccc1 (stereo not drawn) [Example 2, 3-(5-(1-Methyl-5-phenyl-1H-imidazol-4-yl)-1-oxoisoindolin-2-yl)piperidine-2,6-dione] | C (C = 0-10% remaining) | < 25 nM | < 25 nM | E (E = >25-75% remaining) |  | 
3 | Cn1cc(-c2ccc3c(c2)CN(C2CCC(=O)NC2=O)C3=O)c(-c2ccccc2)n1 (stereo not drawn) [Example 3, 3-(5-(1-Methyl-3-phenyl-1H-pyrazol-4-yl)-1-oxoisoindolin-2-yl) piperidine-2,6-dione] | E (E = >25-75% remaining) | < 25 nM | ≥ 25 nM | F (F = >75-100% remaining) |  | 
4 | O=C1CCC(N2Cc3cc(-c4cscc4-c4ccccc4)ccc3C2=O)C(=O)N1 (stereo not drawn) [Example 4, 3-(1-Oxo-5-(4-phenylthiophen-3-yl)isoindolin-2-yl)piperidine-2,6-dione] | E (E = >25-75% remaining) | ≥ 25 nM | ≥ 25 nM | F (F = >75-100% remaining) |  | 
5 | O=C1CCC(N2Cc3cc(-c4c[nH]nc4-c4ccccc4)ccc3C2=O)C(=O)N1 (stereo not drawn) [Example 5, 3-(1-Oxo-5-(3-phenyl-1H-pyrazol-4-yl)isoindolin-2-yl) piperidine-2,6-dione] | D (D = >10- 25% remaining) | < 25 nM | ≥ 25 nM | F (F = >75-100% remaining) |  | 
6 | O=C1CCC(N2Cc3cc(-c4ccnn4-c4ccccc4)ccc3C2=O)C(=O)N1 (stereo not drawn) [Example 6, 3-(1-oxo-5-(1-phenyl-1H-pyrazol-5-yl)isoindolin-2-yl)piperidine-2,6-dione] | E (E = >25-75% remaining) | ≥ 25 nM | ≥ 25 nM | F (F = >75-100% remaining) |  | 
7 | Cn1ncc(-c2ccc3c(c2)CN(C2CCC(=O)NC2=O)C3=O)c1-c1ccc(F)cc1 (stereo not drawn) [Example 8, 3-(5-(5-(4-fluorophenyl)-1-methyl-1H-pyrazol-4-yl)-1-oxoisoindolin-2-yl)piperidine-2,6-dione] | E (E = >25-75% remaining) | < 25 nM | ≥ 25 nM | F (F = >75-100% remaining) |  | 
8 | O=C1CCC(N2Cc3cc(-c4cnn(-c5ccccc5)c4)ccc3C2=O)C(=O)N1 (stereo not drawn) [Example 9, 3-(1-Oxo-5-(1-phenyl-1H-pyrazol-4-yl)isoindolin-2-yl)piperidine-2,6-dione] | E (E = >25-75% remaining) | ≥ 25 nM | ≥ 25 nM | E (E = >25-75% remaining) |  | 
9 | Cn1cnc(-c2ccc3c(c2)CN(C2CCC(=O)NC2=O)C3=O)c1-c1ccc(F)cc1 (stereo not drawn) [Example 10, 3-(5-(5-(4-Fluorophenyl)-1-methyl-1H-imidazol-4-yl)-1-oxoisoindolin-2-yl)piperidine-2,6-dione] | C (C = 0-10% remaining) | < 25 nM | ≥ 25 nM | E (E = >25-75% remaining) |  | 
10 | Cc1[nH]nc(-c2ccc3c(c2)CN(C2CCC(=O)NC2=O)C3=O)c1-c1ccccc1 (stereo not drawn) [Example 11] | C (C = 0-10% remaining) | < 25 nM | < 25 nM | D (D = >10- 25% remaining) |  | 
11 | O=C1CCC(N2Cc3cc(-c4nc[nH]c4-c4ccccc4)ccc3C2=O)C(=O)N1 (stereo not drawn) [Example 13, 3-(1-Oxo-5-(5-phenyl-1H-imidazol-4-yl)isoindolin-2-yl) piperidine-2,6-dione] | C (C = 0-10% remaining) | < 25 nM | < 25 nM | E (E = >25-75% remaining) |  | 
12 | O=C1CCC(N2Cc3cc(-c4ncoc4-c4ccccc4)ccc3C2=O)C(=O)N1 (stereo not drawn) [Example 15, 3-(1-oxo-5-(5-phenyloxazol-4-yl)isoindolin-2-yl)piperidine-2,6-dione] | C (C = 0-10% remaining) | < 25 nM | < 25 nM | E (E = >25-75% remaining) |  | 
13 | Cn1cnc(-c2cc3c(s2)C(=O)N(C2CCC(=O)NC2=O)C3)c1-c1ccccc1 (stereo not drawn) [Example 16, 3-(2-(1-methyl-5-phenyl-1H-imidazol-4-yl)-6-oxo-4,6-dihydro-5H-thieno[2,3-c]pyrrol-5-yl)piperidine-2,6-dione] | E (E = >25-75% remaining) | ≥ 25 nM | ≥ 25 nM | F (F = >75-100% remaining) |  | 
14 | Cc1nn(C)c(-c2ccc3c(c2)CN(C2CCC(=O)NC2=O)C3=O)c1-c1ccccc1 (stereo not drawn) [Example 18, 3-(5-(1,3-Dimethyl-4-phenyl-1H-pyrazol-5-yl)-1-oxoisoindolin-2-yl)piperidine-2,6-dione] | E (E = >25-75% remaining) | ≥ 25 nM | ≥ 25 nM | E (E = >25-75% remaining) |  | 
15 | Cn1cnc(-c2ccn3c(=O)n(C4CCC(=O)NC4=O)nc3c2)c1-c1ccccc1 (stereo not drawn) [Example 20, 3-(7-(1-Methyl-5-phenyl-1H-imidazol-4-yl)-3-oxo-[1,2,4]triazolo[4,3-a]pyridin-2 (3H)-yl)piperidine-2,6-dione] | E (E = >25-75% remaining) | ≥ 25 nM | ≥ 25 nM | E (E = >25-75% remaining) |  | 
16 | Cn1cnc(-c2ccccc2)c1-c1ccc2c(c1)CN(C1CCC(=O)NC1=O)C2=O (stereo not drawn) [Example 21, 3-(5-(1-Methyl-4-phenyl-1H-imidazol-5-yl)-1-oxoisoindolin-2-yl)piperidine-2,6-dione] | E (E = >25-75% remaining) | ≥ 25 nM | ≥ 25 nM | C (C = 0-10% remaining) |  | 
17 | CC(C)Cn1cnc(-c2ccc3c(c2)CN(C2CCC(=O)NC2=O)C3=O)c1-c1ccccc1 (stereo not drawn) [Example 22, 3-(5-(1-Isobutyl-5-phenyl-1H-imidazol-4-yl)-1-oxoisoindolin-2-yl)piperidine-2,6-dione] | C (C = 0-10% remaining) | < 25 nM | < 25 nM | E (E = >25-75% remaining) |  | 
18 | O=C1CCC(N2Cc3cc(-c4ncsc4-c4ccccc4)ccc3C2=O)C(=O)N1 (stereo not drawn) [Example 23, 3-(1-Oxo-5-(5-phenylthiazol-4-yl)isoindolin-2-yl) piperidine-2,6-dione] | D (D = >10- 25% remaining) | < 25 nM | ≥ 25 nM | E (E = >25-75% remaining) |  | 
19 | Cn1cnc(-c2ccc3c(c2)CN([C@@H]2CCC(=O)NC2=O)C3=O)c1-c1ccc(F)cc1 [Example 24, (R)-3-(5-(5-(4-fluorophenyl)-1-methyl-1H-imidazol-4-yl)-1-oxoisoindolin-2-yl) piperidine-2,6-dione] | C (C = 0-10% remaining) | < 25 nM | ≥ 25 nM | E (E = >25-75% remaining) |  | 
20 | CCn1cnc(-c2ccc3c(c2)CN(C2CCC(=O)NC2=O)C3=O)c1-c1ccccc1 (stereo not drawn) [Example 26, 3-(5-(1-Ethyl-5-phenyl-1H-imidazol-4-yl)-1-oxoisoindolin-2-yl)piperidine-2,6-dione] | C (C = 0-10% remaining) | < 25 nM | < 25 nM | E (E = >25-75% remaining) |  | 
21 | O=C1CCC(N2Cc3cc(-c4cnn(C(F)F)c4-c4ccccc4)ccc3C2=O)C(=O)N1 (stereo not drawn) [Example 27, 3-(5-(1-(difluoromethyl)-5-phenyl-1H-pyrazol-4-yl)-1-oxoisoindolin-2-yl)piperidine-2,6-dione] | D (D = >10- 25% remaining) | < 25 nM | ≥ 25 nM | F (F = >75-100% remaining) |  | 
22 | Cn1c(-c2ccc3c(c2)CN(C2CCC(=O)NC2=O)C3=O)cnc1-c1ccccc1 (stereo not drawn) [Example 28, 3-(5-(1-methyl-2-phenyl-1H-imidazol-5-yl)-1-oxoisoindolin-2-yl)piperidine-2,6-dione] | E (E = >25-75% remaining) | ≥ 25 nM | ≥ 25 nM | F (F = >75-100% remaining) |  | 
23 | Cn1nc(-c2ccc3c(c2)CN(C2CCC(=O)NC2=O)C3=O)cc1-c1ccc(C(F)(F)F)cc1 (stereo not drawn) [Example 495, 3-(5-(1-methyl-5-(4-(trifluoromethyl)phenyl)-1H-pyrazol-3-yl)-1-oxoisoindolin-2-yl)piperidine-2,6-dione] |  |  |  |  | C (C = 0-10% remaining) | < 25 nM
